“And” between values parts separate entries of the source, which are not always exact repeats. Identical values can stand only once. Like-named read-outs stand apart in the source and are kept apart here.
How the values were obtained:
HEK-MOCK cells [1] = test: Concentration-dependent cellular uptake into HEK-MOCK cells; assay type: cell-based, human; conditions: for Vmax: 10 min
Procedure: (§1) The concentrations for the compounds were in the range of 2–400 μM. Otherwise, the experiment was carried out as described above and analyzed by liquid chromatography coupled with an electrospray ionization (ESI) triple quadrupole mass spectrometer (LC–MS–MS). […]
(§2) The concentration-dependent uptake studies were performed by adding 2–400 μM of the tested compound in 250 μL of prewarmed HBSS buffer on the cell layer. […] After incubation, the cells were washed and lysed as described above. The lysate was collected from wells into an Eppendorf tube and centrifuged at 4 °C, the supernatant was collected, and the intracellular concentrations of studied compounds were analyzed by liquid chromatography coupled with an ESI triple quadrupole mass spectrometer (LC–MS–MS). The results were calculated from the standard curve that was prepared by spiking known amounts of each compound to the cell lysate and normalized to protein concentration. The protein concentrations on each plate were determined as a mean of three samples by Bio-Rad Protein Assay, based on the Bradford dye-binding method, using BSA as a standard protein and measuring the absorbance (595 nm) by a multiplate reader (EnVision, PerkinElmer, Inc., Waltham, MA, USA). All statistical analyses (Michaelis–Menten kinetic parameters) were performed using GraphPad Prism v. 5.03 software (GraphPad Software, San Diego, CA., USA). […]
(§3) After protein precipitation, the samples were centrifuged for 10 min with 10,000 g at 4 °C. The supernatant was then collected and transferred to vials for LC–MS/MS analysis. For BCH and gabapentin, cells were also lysed with 0.1 M NaOH, an aliquot was taken from the lysates, and perchloric acid (PCA) was added to precipitate the proteins. The samples were then centrifuged, and the supernatant was diluted 1:10 with H20 with 0.1% formic acid including the IS and transferred to vials for analysis.
(§4) The samples were analyzed with LC–MS/MS coupled with an Agilent 1200 series Rapid Resolution LC System (Agilent Technologies, Waldbronn, Germany) and an Agilent 6410 Triple Quadrupole with electrospray ionization (ESI) (Agilent Technologies, Palo Alto, CA, USA). […] The aqueous mobile phase was 0.1% formic acid in water (A), while the organic mobile phase was 0.1% formic acid in acetonitrile (B). […] For compound 4: 0–4 min 10% → 90% B, 4–6 min 90% B, 6–6.1 min 90% → 10%, 6.1–9 min 10%. For compound 5: 0–1 min 20% → 95% B, 1–4 min 95%, 4–4.1 min 95% → 20%, 4.1–7 min 20%. For compounds 6 and 9: 0–2 min 10% → 95%, 2–6 min 95%, 6–6.1 min 95% → 10%, 6.1–9 min 10%. For compound 8: 0–1 min 20% → 80%, 1–5.2 min 80%, 5.2–5.3 min 80% → 20%, 5.3–9 min 20%.

hLAT1/4F2hc [2] = biological target: T1, hLAT1/4F2hc (Homo sapiens, UniProt Q01650); test: cis-inhibition of [14C]-L-leucine uptake in HEK-hLAT1 cells; assay type: cell-based; conditions: HEK-hLAT1 cells; for inhibition at 50 µM: read-out: [14C]-L-Leucine uptake inhibition % (50μM); for IC50: read-out: IC50 of [14C]-L-leucine uptake
T1 construct: Invitrogen (host cells)
T1 sequence (Q01650 whole entry): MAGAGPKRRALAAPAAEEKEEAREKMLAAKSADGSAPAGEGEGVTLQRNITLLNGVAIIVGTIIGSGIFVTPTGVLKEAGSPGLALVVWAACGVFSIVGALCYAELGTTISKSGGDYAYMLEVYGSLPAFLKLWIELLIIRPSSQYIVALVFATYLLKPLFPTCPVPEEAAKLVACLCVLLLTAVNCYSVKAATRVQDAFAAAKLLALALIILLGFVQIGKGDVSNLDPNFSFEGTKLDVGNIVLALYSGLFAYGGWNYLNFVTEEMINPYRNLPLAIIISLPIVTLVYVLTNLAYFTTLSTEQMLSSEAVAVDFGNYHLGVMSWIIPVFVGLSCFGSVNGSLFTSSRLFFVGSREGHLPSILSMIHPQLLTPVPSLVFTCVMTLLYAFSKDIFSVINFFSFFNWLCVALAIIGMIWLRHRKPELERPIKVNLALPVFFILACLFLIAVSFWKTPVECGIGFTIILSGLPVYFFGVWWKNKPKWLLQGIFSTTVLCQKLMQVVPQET
T1 sequence (P08195 102-630 partner): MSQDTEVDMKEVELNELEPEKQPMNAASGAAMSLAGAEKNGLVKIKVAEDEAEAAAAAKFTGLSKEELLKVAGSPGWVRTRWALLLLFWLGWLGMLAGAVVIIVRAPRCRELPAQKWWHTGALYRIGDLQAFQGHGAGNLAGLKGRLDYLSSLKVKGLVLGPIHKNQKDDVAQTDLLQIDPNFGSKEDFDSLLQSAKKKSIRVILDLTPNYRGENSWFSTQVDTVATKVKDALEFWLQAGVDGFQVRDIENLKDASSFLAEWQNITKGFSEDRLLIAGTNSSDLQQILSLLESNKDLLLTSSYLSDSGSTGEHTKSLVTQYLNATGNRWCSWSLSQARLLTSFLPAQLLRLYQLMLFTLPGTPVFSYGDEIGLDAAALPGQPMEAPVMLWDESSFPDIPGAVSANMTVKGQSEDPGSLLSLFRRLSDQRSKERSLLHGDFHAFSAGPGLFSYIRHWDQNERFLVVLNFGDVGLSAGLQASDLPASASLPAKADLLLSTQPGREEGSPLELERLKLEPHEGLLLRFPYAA
Procedure: (§5) In the following experiments, the MCF-7, HEK-hLAT1, and HEK-MOCK cells were cultured, seeded, and preincubated as described above. The HBSS was removed, and the ability of the compounds to inhibit the uptake of a known LAT1 substrate, [^14C]-L-leucine (PerkinElmer, Waltham, MA, USA), was studied by incubating the cells at RT for 10 min in uptake buffer pH 7.4 (250 μL) containing 0.76 μM (0.1 mCi/mL) of [^14C]-L-leucine and 0.025–1800 μM of the studied compound (or HBSS as blank). After incubation, the reaction was stopped with ice-cold HBSS, and the cells were washed two times with ice-cold HBSS. The cells were then lysed with 250 μL of 0.1 M sodium hydroxide, the lysate was mixed with 1.0 mL of Emulsifier safe cocktail (PerkinElmer, Waltham, MA, USA), and the radioactivity was measured with a liquid scintillation counter (MicroBeta^2 counter, PerkinElmer, Waltham, MA, USA). The inhibition of [^14C]-L-leucine in the presence of the studied compounds as compared to the control (HBSS) was calculated as percentages (%).
Using the stably hLAT1/4F2hc expressing cell line, the compounds’ inhibitory efficiencies and uptake kinetics were determined via the cis-inhibition assay and uptake studies, respectively. (Table 1) Cis-inhibition is based on the competition between the ligand and LAT1 substrate [^14C]-L-leucine that results in inhibition of substrate uptake. The competitive uptake with L-leucine is reported as the IC50 value of L-leucine uptake and extent as inhibition percentage (%) at a given concentration.

HEK-MOCK cells [3] = test: cis-inhibition of [14C]-L-leucine uptake in HEK-MOCK cells; assay type: cell-based, human; conditions: HEK-MOCK cells, known substrates; for IC50: read-out: IC50 of [14C]-L-leucine uptake
Procedure: as §5
Using the stably hLAT1/4F2hc expressing cell line, the compounds’ inhibitory efficiencies and uptake kinetics were determined via the cis-inhibition assay and uptake studies, respectively. (Table 1) Cis-inhibition is based on the competition between the ligand and LAT1 substrate [^14C]-L-leucine that results in inhibition of substrate uptake. The competitive uptake with L-leucine is reported as the IC50 value of L-leucine uptake and extent as inhibition percentage (%) at a given concentration. Overall, the inhibition trends of the tested compounds were similar between HEK-hLAT1 and MCF-7 cells. In the next step, more straightforward results were obtained by undertaking direct cellular uptake studies with both HEK-hLAT1 and HEK-MOCK cells. This experiment enabled us to determine not only the uptake kinetics (Vmax and Km) of the ligands but also their preference for LAT1-expressing cells over the comparator HEK-MOCK cells.

hLAT1/4F2hc [4] = biological target: T1, hLAT1/4F2hc; test: Concentration-dependent cellular uptake into HEK-hLAT1 cells (LC-MS/MS, Michaelis-Menten); assay type: cell-based; conditions: for Vmax / Km: HEK-hLAT1 cells; for Vmax: 2-400 μM, 10 min; for Km: read-out: Km
Procedure: as §1, §2, §3, §4

[5] = biological target: T2, LAT1 in MCF-7 human breast cancer cells (Homo sapiens, UniProt Q01650); test: cis-inhibition of [14C]-L-leucine uptake in MCF-7 cells; assay type: cell-based; conditions: for inhibition at 50 µM: MCF7, MCF-7 cells, 50 μM compound; for IC50: MCF-7 cells
T2 construct: wild-type MCF-7 human breast cancer cell line; endogenous in cells; host or cells: MCF-7 human breast cancer cells (wild type)
T2 sequence (Q01650 whole entry): as the sequence (Q01650 whole entry) above
T2 sequence (P08195 102-630 partner): as the sequence (P08195 102-630 partner) above
Procedure: Cells were cultured in DMEM (Gibco, ThermoFisher Scientific, Waltham, MA, USA) supplemented with L-glutamine (2 mM; ThermoFisher Scientific, Waltham, MA, USA), heat-inactivated fetal bovine serum (10%; Gibco, ThermoFisher Scientific, Waltham, MA, USA), penicillin (50 U/mL)-streptomycin (50 μg/mL) solution (ThermoFisher Scientific, Waltham, MA, USA), and hygromycin B solution (100 μg/mL) for transfected cells. HEK-hLAT1 and HEK-MOCK cells (passages 7–20) were seeded at a density of 5 × 10^5 cells/wells onto 24-well plates. The cells were used in the characterization, competition, and uptake studies 2 days after seeding. MCF-7 cells were seeded at a density of 1 × 10^5 and were used in the competition studies 1 day after seeding. The culture medium was removed, and the cells were washed with prewarmed Hanks’ balanced salt solution (HBSS; 125 mM NaCl, 4.8 mM KCl, 1.2 mM MgSO4, 1.2 mM KH2PO4, 1.3 mM CaCl2, 5.6 mM D-glucose, and 25 mM HEPES, pH 7.4). The cells were then incubated with HBSS at 37 °C for 10 min before the experiments.
as §5

hLAT1/4F2hc [6] = biological target: T1, hLAT1/4F2hc; test: Concentration-dependent cellular uptake into HEK-hLAT1 cells (LC-MS/MS, Michaelis-Menten); assay type: cell-based; conditions: difference in uptake HEK-hLAT1 vs HEK-MOCK, with docking poses; 2-100 μM curves
[7] = known LAT1 substrates, 2-400 μM, n = 3
[8] = 50 μM compound, 0.76 μM [14C]-L-leucine, 10 min, known substrates
[9] = 50 μM compound, 0.76 μM [14C]-L-leucine, 10 min

NC1(C(=O)O)CC2CCC1C2 (stereo not drawn) [BCH, reference compound]
Vmax (HEK-MOCK cells [1]; [7]): 2.6±0.6 nmol/min/mg of protein | Km (HEK-MOCK cells [1]; known LAT1 substrates, n = 3): 155 ± 50 µM | inhibition at 50 µM (hLAT1/4F2hc [2]; [8]): 51.8 ± 2.1% | IC50 (hLAT1/4F2hc [2]; known substrates): 28 µM | inhibition at 50 µM (HEK-MOCK cells [3]; Homo sapiens, 10 min, 50 μM compound, 0.76 μM [14C]-L-leucine, 10 min, read-out: [14C]-L-Leucine uptake inhibition % (50μM)): 5.8 ± 1% | IC50 (HEK-MOCK cells [3]; Homo sapiens): 203 µM

N[C@@H](Cc1cccc(NC(=O)c2ccccc2O)c1)C(=O)O [Compound 1]
Vmax (hLAT1/4F2hc [4]; compounds 1-12): 3714±371 pmol/min/mg of protein | Km (hLAT1/4F2hc [4]; compounds 1-12): 105 ± 17 µM | Km (HEK-MOCK cells [1]; compounds 1-12): 10 ± 2.7 µM | Vmax (HEK-MOCK cells [1]; compounds 1-12, 2-400 μM): 94±5.4 pmol/min/mg of protein | inhibition at 50 µM (hLAT1/4F2hc [2]; 50 μM compound, compounds 1-12): 8.1 ± 6.9% | IC50 (hLAT1/4F2hc [2]; compounds 1-12): > 100 µM | inhibition at 50 µM [5]: 66 ± 3.9% | IC50 [5]: 3.3 ± 1.3 µM | interaction class with LAT1 (interaction and transportability) (hLAT1/4F2hc [6]): highest interactions

CCCC(CCC)C(=O)Nc1cccc(C[C@H](N)C(=O)O)c1 [Compound 4]
Vmax (hLAT1/4F2hc [4]; compounds 1-12): 1027 pmol/min/mg of protein and 1027±170 pmol/min/mg of protein | Km (hLAT1/4F2hc [4]; compounds 1-12): 111 ± 30 µM | potency for hLAT1 relative to HEK-MOCK (Km ratio) (hLAT1/4F2hc [4]; Km 111 μM HEK-hLAT1 vs 277 μM HEK-MOCK): more than two-fold | Vmax (uptake rate) in HEK-hLAT1 cells relative to HEK-MOCK cells (hLAT1/4F2hc [4]; ratio of Vmax values): around three | Km (HEK-MOCK cells [1]; compounds 1-12): 277 µM | Vmax (HEK-MOCK cells [1]; compounds 1-12, 2-400 μM): 292 pmol/min/mg of protein and 292±710 pmol/min/mg of protein | [14C]-L-Leucine uptake inhibition % (50μM) (hLAT1/4F2hc [2]; 50 μM compound, compounds 1-12): no inhibition | IC50 (hLAT1/4F2hc [2]; compounds 1-12): > 100 µM | IC50 [5]: 81 ± 1.4 µM | interaction class with LAT1 (interaction and transportability) (hLAT1/4F2hc [6]): highest interactions

CNC(=O)COc1ccc(-c2c(C#N)c(NC(=O)c3cccc(C[C@H](N)C(=O)O)c3)n3c(nc4ccccc43)c2C#N)cc1 [Compound 6]
Km (HEK-MOCK cells [1]; compounds 1-12): 201 ± 344 µM | Vmax (HEK-MOCK cells [1]; compounds 1-12, 2-400 μM): 74±92 pmol/min/mg of protein | inhibition at 50 µM (hLAT1/4F2hc [2]; 50 μM compound, compounds 1-12): 29 ± 2.8% | IC50 (hLAT1/4F2hc [2]; compounds 1-12): > 100 µM | inhibition at 50 µM [5]: 48 ± 12% | interaction class with LAT1 (interaction and transportability) (hLAT1/4F2hc [6]): medium interactions

CC(C)Cc1ccc(C(C)C(=O)Nc2cccc(C[C@H](N)C(=O)O)c2)cc1 (stereo partly drawn) [Compound 7]
inhibition at 50 µM (hLAT1/4F2hc [2]; 50 μM compound, compounds 1-12): 20 ± 2.5% | IC50 (hLAT1/4F2hc [2]; compounds 1-12): 57 µM | inhibition at 50 µM [5]: 69 ± 4.3% | IC50 [5]: 20 ± 1.3 µM | interaction class with LAT1 (interaction and transportability) (hLAT1/4F2hc [6]): medium interactions

CC(C(=O)Nc1cccc(C[C@H](N)C(=O)O)c1)c1ccc(-c2ccccc2)c(F)c1 (stereo partly drawn) [Compound 11]
inhibition at 50 µM (hLAT1/4F2hc [2]; 50 μM compound, compounds 1-12): 26.4 ± 3.1% | IC50 (hLAT1/4F2hc [2]; compounds 1-12): > 100 µM | inhibition at 50 µM [5]: 84 ± 3.1% | IC50 [5]: 2.2 ± 1.3 µM | interaction class with LAT1 (interaction and transportability) (hLAT1/4F2hc [6]): not interacting with LAT1

COc1ccc2cc(C(C)C(=O)Nc3cccc(C[C@H](N)C(=O)O)c3)ccc2c1 (stereo partly drawn) [Compound 12]
inhibition at 50 µM (hLAT1/4F2hc [2]; 50 μM compound, compounds 1-12): 28 ± 2.6% | IC50 (hLAT1/4F2hc [2]; compounds 1-12): > 100 µM | inhibition at 50 µM [5]: 83 ± 1.7% | IC50 [5]: 5.6 ± 1.3 µM | interaction class with LAT1 (interaction and transportability) (hLAT1/4F2hc [6]): not interacting with LAT1

NCC1(CC(=O)O)CCCCC1 [Gabapentin, reference compound]
Vmax (hLAT1/4F2hc [4]; known LAT1 substrates, n = 3): 18±9.9 nmol/min/mg of protein | Km (hLAT1/4F2hc [4]; known LAT1 substrates, n = 3): 552 ± 334 µM | Vmax (HEK-MOCK cells [1]; [7]): 4.7±1.6 nmol/min/mg of protein | Km (HEK-MOCK cells [1]; known LAT1 substrates, n = 3): 182 ± 86 µM | inhibition at 50 µM (hLAT1/4F2hc [2]; [8]): 46.7 ± 1.7% | IC50 (hLAT1/4F2hc [2]; known substrates): 36 µM | [14C]-L-Leucine uptake inhibition % (50μM) (HEK-MOCK cells [3]; [9]): no inhibition | IC50 (HEK-MOCK cells [3]; Homo sapiens): > 1000 µM

N[C@@H](Cc1ccc(O)c(O)c1)C(=O)O [L-DOPA, reference compound]
Vmax (hLAT1/4F2hc [4]; known LAT1 substrates, n = 3): 15±7.6 nmol/min/mg of protein | Km (hLAT1/4F2hc [4]; known LAT1 substrates, n = 3): 763 ± 413 µM | Vmax (HEK-MOCK cells [1]; [7]): 2.8±0.9 nmol/min/mg of protein | Km (HEK-MOCK cells [1]; known LAT1 substrates, n = 3): 225 ± 90 µM | IC50 (hLAT1/4F2hc [2]; known substrates): 4.1 µM | [14C]-L-Leucine uptake inhibition % (50μM) (HEK-MOCK cells [3]; [9]): no inhibition

Reference: PMC9811466, “Structural Features Affecting the Interactions and Transportability of LAT1-Targeted Phenylalanine Drug Conjugates” (Molecular Pharmaceutics, 2022)
